# Measured values from patent US10111932B2, “Coagonists of glucagon-like peptide 1 receptor and neuropeptide Y2 receptor” (Syracuse University, priority 2015, dated 2018).
# Entries after “also recorded” stand apart in the source; their conditions may differ. Ends that are not written are not given here.
# How the values were obtained:
# Type in all cases: cell-based
# GLP-1R = target: T1, GLP-1R (Homo sapiens, UniProt P43220); assay: GLP-1R agonism, AKAR3 FRET assay in HEK-GLP-1R cells; conditions: for GLP-1R agonism screen: 300 nM, HEK-GLP-1R cells (FIG. 10)
# T1 construct: expressed in transfected cells; host or cells: HEK293
# Method: (§1) The RLB series peptides were tested for function at receptors corresponding to the glucagon super family of receptors and NPY receptors. These receptors were transfected into either HEK293 cells or CHO cells. HEK 293 cells stably transfected with either GLP-1R or GIPR followed by an infection of adenovirus incorporating AKAR3 to indirectly follow cAMP production. CHO cells were transfected with NPY2R and a promiscuous g protein using FURA2 to follow calcium release.
# NPY2R = target: T2, NPY2R (Homo sapiens, UniProt P49146); assay: NPY2R agonism, FURA2 calcium release in transfected CHO cells
# T2 construct: expressed in transfected cells; host or cells: CHO
# T2 sequence (P49146 1-381): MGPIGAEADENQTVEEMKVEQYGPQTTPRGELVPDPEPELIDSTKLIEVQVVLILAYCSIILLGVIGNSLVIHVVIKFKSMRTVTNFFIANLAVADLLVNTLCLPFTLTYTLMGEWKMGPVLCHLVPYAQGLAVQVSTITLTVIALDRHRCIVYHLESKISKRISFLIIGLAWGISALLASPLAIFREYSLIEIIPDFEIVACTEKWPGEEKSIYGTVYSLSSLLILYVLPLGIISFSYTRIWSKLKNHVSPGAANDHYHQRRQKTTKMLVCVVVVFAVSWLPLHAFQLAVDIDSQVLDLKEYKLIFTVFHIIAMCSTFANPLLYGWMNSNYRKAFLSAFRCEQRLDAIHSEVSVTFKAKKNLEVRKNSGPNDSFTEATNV
# Method: as §1
# GIPR = target: T3, GIPR (Homo sapiens, UniProt P48546); assay: GIPR agonism, AKAR3 FRET in HEK293 cells stably transfected with GIPR; conditions: tested up to 1 μM
# T3 construct: expressed in transfected cells; host or cells: HEK293
# T3 sequence (P48546 22-466): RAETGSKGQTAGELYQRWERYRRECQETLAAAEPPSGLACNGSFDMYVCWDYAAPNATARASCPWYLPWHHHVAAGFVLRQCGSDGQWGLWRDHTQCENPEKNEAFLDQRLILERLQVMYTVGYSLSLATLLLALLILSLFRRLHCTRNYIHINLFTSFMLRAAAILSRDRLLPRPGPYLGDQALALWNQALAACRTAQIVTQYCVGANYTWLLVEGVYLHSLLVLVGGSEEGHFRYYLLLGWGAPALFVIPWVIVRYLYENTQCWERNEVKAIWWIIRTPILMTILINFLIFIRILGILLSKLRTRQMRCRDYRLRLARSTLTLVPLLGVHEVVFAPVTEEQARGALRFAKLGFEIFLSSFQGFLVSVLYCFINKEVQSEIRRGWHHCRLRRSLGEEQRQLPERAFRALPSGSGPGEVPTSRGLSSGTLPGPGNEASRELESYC
# Method: as §1
# Receptors in the glucagon receptor superfamily were tested based on the similarities of native peptide agonists.
# T1 sequence (P43220 24-463, species assumed): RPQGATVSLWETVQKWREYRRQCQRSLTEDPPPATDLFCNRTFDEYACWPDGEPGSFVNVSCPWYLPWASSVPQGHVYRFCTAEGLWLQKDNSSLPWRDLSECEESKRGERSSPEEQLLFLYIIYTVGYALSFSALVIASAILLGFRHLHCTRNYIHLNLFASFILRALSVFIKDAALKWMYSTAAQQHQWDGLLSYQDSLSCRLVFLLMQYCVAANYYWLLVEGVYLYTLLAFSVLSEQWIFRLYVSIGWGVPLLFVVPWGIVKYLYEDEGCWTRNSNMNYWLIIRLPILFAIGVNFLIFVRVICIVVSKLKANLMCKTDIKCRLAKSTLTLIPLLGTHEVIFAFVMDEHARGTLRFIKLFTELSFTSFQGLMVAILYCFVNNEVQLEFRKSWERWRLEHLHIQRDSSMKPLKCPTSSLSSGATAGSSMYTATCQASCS
Compound,GLP-1R agonism screen (GLP-1R),EC50 (GLP-1R; dose response),GLP-1R agonism screening (GLP-1R; peptides at 100 nM (FIG. 3)),"Potency at the GLP-1R, comparative statement (GLP-1R; relative to the other dual agonists)",NPY2R agonism screen (NPY2R; 300 nM (FIG. 12)),EC50 (NPY2R; dose response),GIPR agonism (GIPR)
CC[C@H](C)[C@H](NC(=O)[C@H](Cc1ccccc1)NC(=O)[C@H](CC(C)C)NC(=O)[C@H](CCCNC(=N)N)NC(=O)[C@@H](NC(=O)[C@H](C)NC(=O)[C@H](CCC(=O)O)NC(=O)[C@H](CCC(=O)O)NC(=O)[C@H](CCC(=O)O)NC(=O)[C@H](CCSC)NC(=O)[C@H](CCC(N)=O)NC(=O)[C@H](CCCCN)NC(=O)[C@H](CO)NC(=O)[C@H](CC(C)C)NC(=O)[C@H](CC(=O)O)NC(=O)[C@H](CO)NC(=O)[C@@H](NC(=O)[C@H](Cc1ccccc1)NC(=O)[C@@H](NC(=O)CNC(=O)[C@H](CCC(=O)O)NC(=O)CNC(=O)[C@@H](N)Cc1c[nH]cn1)[C@@H](C)O)[C@@H](C)O)C(C)C)C(=O)N[C@@H](CCC(=O)O)C(=O)N[C@@H](Cc1c[nH]c2ccccc12)C(=O)N[C@@H](CC(C)C)C(=O)N[C@@H](CCCNC(=N)N)C(=O)N[C@@H](Cc1c[nH]cn1)C(=O)N[C@@H](Cc1ccc(O)cc1)C(=O)N[C@@H](CC(C)C)C(=O)N[C@@H](CC(N)=O)C(=O)N[C@@H](CC(C)C)C(=O)N[C@H](C(=O)N[C@H](C(=O)N[C@@H](CCCNC(=N)N)C(=O)N[C@@H](CCC(N)=O)C(=O)N[C@@H](CCCNC(=N)N)C(=O)N[C@@H](Cc1ccc(O)cc1)C(N)=O)[C@@H](C)O)C(C)C [Peptide 12],have agonism,0.253 ± 0.05 nM,effective agonists,significant less potent,full function,59 nM,no agonsim; also recorded: no function
IKPEAPREDASPEEENQAYKEFIAYLNLVTRQRY-NH2 [Peptide 13],no function,–,–,–,–,–,–
